Source: patent US20150105252A1, “SUBSTITUTED PYRAZOLES AS HERBICIDES” (E I DU PONT DE NEMOURS AND COMPANY, priority 2013, published 2015)

Tests used:
wheat = assay: Test C preemergence; format: in vivo, Triticum aestivum; conditions: for Plant response rating (scale of 0 to 100), Wheat: Preemergence; for Wheat plant response rating / Plant response rating, Wheat: preemergence; for Plant response rating, Wheat: scale 0 to 100, 0 = no effect, 100 = complete control
Summary of the method: (§1)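 In this greenhouse assay, seeded soil (loam plus sand) or emerged seedlings in peat-vermiculite medium were treated with formulated compound. Roughly two weeks later (13–15 days), each species was scored visually relative to controls, from 0 for no effect to 100 for complete control.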

sedge, umbrella = assay: Test C flooded paddy test; format: in vivo, Cyperus difformis; conditions: Flood
Summary of the method: (§2)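 In-water treatment: compound dosed into 3 cm flood over soil, water level unchanged throughout. Controls run alongside; visual assessment at day 13–15.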

rice = assay: Test C flooded paddy test; format: in vivo, Oryza sativa; conditions: Flood
Summary of the method: as §2

nutsedge, yellow = assay: Test C postemergence; format: in vivo, Cyperus esculentus; conditions: for Nutsedge, Yellow plant response rating: scale 0 to 100
Summary of the method: as §1

barnyardgrass [1] = assay: Test A preemergence; format: in vivo, Echinochloa crus-galli
Summary of the method: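 Greenhouse test in loam soil/sand blend; compounds formulated in non-phytotoxic solvent with surfactant, applied as preemergence directed soil spray or postemergence to plants 2–10 cm tall at one- to two-leaf stage. Injury rated visually versus untreated controls after approximately 10 days on a 0 (no effect) to 100 (complete control) scale.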

ducksalad = assay: Test C flooded paddy test; format: in vivo, Heteranthera limosa; conditions: Flood
Summary of the method: as §2

barnyardgrass [2] = assay: Test C flooded paddy test; format: in vivo, Echinochloa crus-galli; conditions: Flood
Summary of the method: as §2

[3] = 31 g ai/ha, scale 0 to 100 (0 no effect, 100 complete control), 13 to 15 days
[4] = 125 g ai/ha, scale 0 to 100, 0 is no effect, 100 is complete control
[5] = 31 g ai/ha, scale 0 to 100 (0 no effect, 100 complete control)
[6] = 62 g ai/ha, scale 0 to 100 (0 no effect, 100 complete control)
[7] = postemergence, 250 g ai/ha, scale 0 to 100 (0 no effect, 100 complete control)
[8] = postemergence, 125 g ai/ha, scale 0 to 100, 0 no effect, 100 complete control
[9] = Preemergence, 500 g ai/ha, 0 to 100 scale, 0 no effect, 100 complete control
[10] = preemergence, 125 g ai/ha, visual injury, 0 to 100 scale, approx. 10 days
[11] = 125 g ai/ha, scale 0 to 100 (0 no effect, 100 complete control)

CCc1cc(C(=O)NOC(C)C)nn1Cc1cccc(OC(F)(F)F)c1 [Compound 70]
Plant response rating (scale of 0 to 100), Wheat (wheat; 250 g ai/ha): 75
Wheat plant response rating (wheat; [3]): 5
Plant response rating, Wheat (wheat; 62 g ai/ha, 13 to 15 days): 10
Wheat plant response rating (wheat; [4]): 65
Plant response rating, Sedge, Umbrella (sedge, umbrella; [5]): 75
Plant response rating, Sedge, Umbrella (sedge, umbrella; [6]): 75
Plant response rating, Sedge, Umbrella (sedge, umbrella; 125 g ai/ha, scale 0 to 100): 85
Plant response rating, Sedge, Umbrella (sedge, umbrella; 250 g ai/ha, scale 0 to 100): 90
Plant response rating, Rice (rice; [5]): 0
Plant response rating, Rice (rice; [6]): 0
Plant response rating, Rice (rice; 125 g ai/ha, scale 0 to 100): 25
Plant response rating, Rice (rice; 250 g ai/ha, scale 0 to 100): 50
Nutsedge, Yellow plant response rating (nutsedge, yellow; Postemergence, 31 g ai/ha): 0
Plant response rating, Nutsedge, Yellow (nutsedge, yellow; [7]): 20
Plant response rating, Nutsedge, Yellow (nutsedge, yellow; postemergence, 62 g ai/ha, scale 0 to 100, 0 no effect, 100 complete control): 0
Plant response rating, Nutsedge, Yellow (nutsedge, yellow; [8]): 0
Barnyardgrass plant response rating (barnyardgrass [1]; [9]): 100
Barnyardgrass plant response rating (barnyardgrass [1]; [10]): 80
Plant response rating, Ducksalad (ducksalad; [5]): 30
Plant response rating, Ducksalad (ducksalad; [6]): 40
Plant response rating, Ducksalad (ducksalad; 125 g ai/ha, scale 0 to 100): 85
Plant response rating, Ducksalad (ducksalad; 250 g ai/ha, scale 0 to 100): 85
Plant response rating, Barnyardgrass (barnyardgrass [2]; [5]): 0
Plant response rating, Barnyardgrass (barnyardgrass [2]; [6]): 0
Plant response rating, Barnyardgrass (barnyardgrass [2]; 125 g ai/ha, scale 0 to 100): 45
Plant response rating, Barnyardgrass (barnyardgrass [2]; 250 g ai/ha, scale 0 to 100): 65

CCONC(=O)c1cc(CC)n(Cc2cccc(OC(F)(F)F)c2)n1 [Compound 72]
Plant response rating (scale of 0 to 100), Wheat (wheat; 250 g ai/ha): 85
Wheat plant response rating (wheat; [3]): 5
Plant response rating, Wheat (wheat; 62 g ai/ha, 13 to 15 days): 20
Wheat plant response rating (wheat; [4]): 50
Plant response rating, Sedge, Umbrella (sedge, umbrella; [5]): 50
Plant response rating, Sedge, Umbrella (sedge, umbrella; [6]): 60
Plant response rating, Sedge, Umbrella (sedge, umbrella; 125 g ai/ha, scale 0 to 100): 65
Plant response rating, Sedge, Umbrella (sedge, umbrella; 250 g ai/ha, scale 0 to 100): 65
Plant response rating, Rice (rice; [5]): 0
Plant response rating, Rice (rice; [6]): 0
Plant response rating, Rice (rice; 125 g ai/ha, scale 0 to 100): 0
Plant response rating, Rice (rice; 250 g ai/ha, scale 0 to 100): 30
Nutsedge, Yellow plant response rating (nutsedge, yellow; Postemergence, 31 g ai/ha): 0
Nutsedge, Yellow plant response rating (nutsedge, yellow; postemergence, 62 g ai/ha): 0
Plant response rating, Nutsedge, Yellow (nutsedge, yellow; [7]): 0
Plant response rating, Nutsedge, Yellow (nutsedge, yellow; [8]): 0
Barnyardgrass plant response rating (barnyardgrass [1]; [9]): 100
Barnyardgrass plant response rating (barnyardgrass [1]; [10]): 90
Plant response rating, Ducksalad (ducksalad; [5]): 0
Plant response rating, Ducksalad (ducksalad; [6]): 70
Plant response rating, Ducksalad (ducksalad; 125 g ai/ha, scale 0 to 100): 75
Plant response rating, Ducksalad (ducksalad; 250 g ai/ha, scale 0 to 100): 75
Plant response rating, Barnyardgrass (barnyardgrass [2]; [5]): 0
Plant response rating, Barnyardgrass (barnyardgrass [2]; [6]): 20
Plant response rating, Barnyardgrass (barnyardgrass [2]; 125 g ai/ha, scale 0 to 100): 20
Plant response rating, Barnyardgrass (barnyardgrass [2]; 250 g ai/ha, scale 0 to 100): 20

CCCc1cc(C(=O)NOC(C)C)nn1Cc1cc(C(F)(F)F)nn1C [Compound 203]
Wheat plant response rating (wheat; 31 g ai/ha, visual rating, scale 0 to 100 (0 no effect, 100 complete control), 13 to 15 days): 40
Wheat plant response rating (wheat; 62 g ai/ha, scale 0 to 100 (0 no effect, 100 complete control), 13 to 15 days): 75
Plant response rating, Wheat (wheat; 125 g ai/ha, 13 to 15 days): 90
Wheat plant response rating (wheat; 250 g ai/ha, scale 0 to 100, 0 is no effect, 100 is complete control): 90
Plant response rating, Sedge, Umbrella (sedge, umbrella; [5]): 40
Plant response rating, Sedge, Umbrella (sedge, umbrella; [6]): 40
Plant response rating, Sedge, Umbrella (sedge, umbrella; [11]): 70
Plant response rating, Sedge, Umbrella (sedge, umbrella; 250 g ai/ha, scale 0 to 100): 85
Plant response rating, Rice (rice; [5]): 0
Plant response rating, Rice (rice; [6]): 0
Plant response rating, Rice (rice; [11]): 0
Plant response rating, Rice (rice; 250 g ai/ha, scale 0 to 100): 0
Barnyardgrass plant response rating (0 to 100 scale, 0 is no effect, 100 is complete control) (barnyardgrass [1]; preemergence, 125 g ai/ha, visual injury approx. 10 days after treatment): 80
Barnyardgrass plant response rating (barnyardgrass [1]; preemergence, 500 g ai/ha, visual injury after approx. 10 days, 0 to 100 scale (0 no effect, 100 complete control)): 100
Plant response rating, Ducksalad (ducksalad; [5]): 0
Plant response rating, Ducksalad (ducksalad; [6]): 0
Plant response rating, Ducksalad (ducksalad; [11]): 20
Plant response rating, Ducksalad (ducksalad; 250 g ai/ha, scale 0 to 100): 80
Plant response rating, Barnyardgrass (barnyardgrass [2]; [5]): 0
Plant response rating, Barnyardgrass (barnyardgrass [2]; [6]): 0
Plant response rating, Barnyardgrass (barnyardgrass [2]; [11]): 0
Plant response rating, Barnyardgrass (barnyardgrass [2]; 250 g ai/ha, scale 0 to 100): 0
